Data: ChEMBL document CHEMBL1138689, “Synthesis of 5a-carba-hexopyranoses and hexopyranosylamines, as well as 5a,5a'-dicarbadisaccharides, from 3,8-dioxatricyclo[4.2.1.0(2,4)]nonan-9-ol: glycosidase inhibitory activity of N-substituted 5a-carba-beta-gluco- and beta-galactopyranosylamines, and derivatives thereof” (Bioorg Med Chem Lett, 2004)

Key:
[1] = Inhibition of Alpha-galactosidase of green coffee beans; […]
Beta-galactosidase = target: T1, Beta-galactosidase (Bos taurus, UniProt Q58D55); test: Inhibition of Beta-galactosidase of bovine liver; […]
T1 sequence (Q58D55 whole entry): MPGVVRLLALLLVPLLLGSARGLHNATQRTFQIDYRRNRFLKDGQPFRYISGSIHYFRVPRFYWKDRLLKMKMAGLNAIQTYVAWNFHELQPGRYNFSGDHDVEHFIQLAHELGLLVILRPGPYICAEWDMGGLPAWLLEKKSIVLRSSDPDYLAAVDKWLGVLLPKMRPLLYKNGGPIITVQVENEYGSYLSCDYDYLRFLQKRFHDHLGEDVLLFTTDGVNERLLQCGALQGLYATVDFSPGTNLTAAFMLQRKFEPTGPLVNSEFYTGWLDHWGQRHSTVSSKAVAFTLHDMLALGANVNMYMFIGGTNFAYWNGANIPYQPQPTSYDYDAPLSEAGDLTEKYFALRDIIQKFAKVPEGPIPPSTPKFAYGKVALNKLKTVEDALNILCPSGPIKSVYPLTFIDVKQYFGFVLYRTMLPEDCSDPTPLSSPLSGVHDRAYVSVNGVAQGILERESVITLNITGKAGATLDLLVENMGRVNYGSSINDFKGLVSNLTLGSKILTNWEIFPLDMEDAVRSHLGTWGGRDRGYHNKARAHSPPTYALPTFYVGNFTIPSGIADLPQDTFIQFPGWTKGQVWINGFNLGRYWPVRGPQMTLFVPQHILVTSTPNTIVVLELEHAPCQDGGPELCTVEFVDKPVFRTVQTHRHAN

[2] = Inhibition of Alpha-Glucosidase of Bakers yeast; NI=no inhibition; design: species or system Saccharomyces cerevisiae
[3] = target: T2, Tissue alpha-L-fucosidase (Bos taurus, UniProt Q2KIM0); test: Inhibition of Alpha-fucosidase of bovine kidney; NI=no inhibition
T2 sequence (Q2KIM0 whole entry): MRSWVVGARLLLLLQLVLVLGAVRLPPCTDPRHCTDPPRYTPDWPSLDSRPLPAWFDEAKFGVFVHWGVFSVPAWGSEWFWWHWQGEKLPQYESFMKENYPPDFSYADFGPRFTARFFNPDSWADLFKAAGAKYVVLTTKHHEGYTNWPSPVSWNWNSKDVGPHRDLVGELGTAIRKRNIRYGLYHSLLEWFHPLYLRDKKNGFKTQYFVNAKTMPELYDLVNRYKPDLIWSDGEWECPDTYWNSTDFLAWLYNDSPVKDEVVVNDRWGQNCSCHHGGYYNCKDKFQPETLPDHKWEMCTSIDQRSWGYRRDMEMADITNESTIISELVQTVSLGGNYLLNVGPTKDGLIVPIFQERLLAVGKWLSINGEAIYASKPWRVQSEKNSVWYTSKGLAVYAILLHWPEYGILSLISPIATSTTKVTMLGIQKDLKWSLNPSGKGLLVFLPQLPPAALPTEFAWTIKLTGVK

[4] = Inhibition of Alpha-galactosidase of green coffee beans; NI=no inhibition
[5] = Compound was tested for the inhibition of alpha-Glucosidase of Bakers yeast; NI denotes no inhibition; design: species or system Saccharomyces cerevisiae
[6] = Inhibition of Alpha-galactosidase of green coffee beans

| SMILES | IC50 [1] [µM] | IC50 (Beta-galactosidase) | IC50 [2] | IC50 [3] | IC50 [4] | IC50 [5] | IC50 [6] [µM] |
| --- | --- | --- | --- | --- | --- | --- | --- |
| CCCCCCCCNC1CC(CO)C(O)C(O)C1O (centres undefined) | > 1000 | – | – | – | – | – | – |
| CCCCCCCCN[C@@H]1C[C@@H]2CO[C@H](C2O)[C@H]1O (single isomer, unassigned) | – | No inhibition | Not Active | Not Active | Not Active | – | – |
| CC(=O)NC1CC(CO)C(O)C(O)C1O (centres undefined) | > 1000 | – | – | – | – | – | – |
| CCCCCCN[C@@H]1C[C@@H]2CO[C@H](C2O)[C@H]1O (single isomer, unassigned) | – | No inhibition | Not Active | Not Active | Not Active | – | – |
| C=C1CC(NCCCCCCCC)C(O)C(O)C1O (centres undefined) | > 1000 | – | – | – | – | – | – |
| OC1[C@H]2CO[C@H]1[C@@H](O)[C@H](NCCc1ccccc1)C2 (single isomer, unassigned) | – | No inhibition | – | Not Active | Not Active | Not Active | – |
| N[C@H]1C[C@H](CO)[C@@H](O)[C@H](O)[C@H]1O | – | – | – | – | – | – | 2.8 |
| OC1[C@H]2CO[C@H]1[C@@H](O)[C@H](NCc1ccccc1)C2 (single isomer, unassigned) | – | No inhibition | Not Active | Not Active | Not Active | – | – |
| CCCCCCCCCCN[C@@H]1C[C@@H]2CO[C@H](C2O)[C@H]1O (single isomer, unassigned) | – | No inhibition | Not Active | Not Active | Not Active | – | – |
| CCCCN[C@@H]1C[C@@H]2CO[C@H](C2O)[C@H]1O (single isomer, unassigned) | – | No inhibition | Not Active | Not Active | Not Active | – | – |
| CO[C@@H]1CC2COC(C1O)[C@H]2NC1CC(CO)C(O)C(O)C1O (some centres undefined) | – | – | – | – | – | – | 1.2 |
| CCCCCCCCCCCCN[C@@H]1C[C@@H]2CO[C@H](C2O)[C@H]1O (single isomer, unassigned) | – | No inhibition | Not Active | Not Active | Not Active | – | – |
| CCCCCCCCNC1CC(C)C(O)C(O)C1O (centres undefined) | > 1000 | – | – | – | – | – | – |
